Data as given in ChEMBL document CHEMBL1201862, “PubChem BioAssay data set” (2004).
The source made the active and inactive calls.

How the values were obtained:
[1] = target: Glyceraldehyde-3-phosphate dehydrogenase (Homo sapiens, UniProt P04406)
[2] = target: Heat shock cognate 71 kDa protein (Homo sapiens, UniProt P11142); assay: In Vitro Hsc70 Dose Response Fluorescence Polarization Assay. [Related pubchem assays: 1072 ]
[3] = target: Heat shock 70 kDa protein 1A (Homo sapiens, UniProt P0DMV8); assay: inhibition of Hsp70 binding activity – biochemical, fluorescence polarization, SAR follow-up (AID 1072)
[4] = target: Serine/threonine-protein phosphatase (Homo sapiens, UniProt Q9BPW0); assay: Counterscreen for inhibitors of PP1: fluorescence-based biochemical high throughput dose response assay to identify inhibitors of Protein Phosphatase 5 (PP5). [Related pubchem assays: 2034 (Summary (PP5 inhibitors)), 1987 (PP5 inhibitors in singlate), 2235 (PP1 inhibitors in singlate)]
[5] = target: Serine/threonine-protein phosphatase PP1-alpha catalytic subunit (Homo sapiens, UniProt P62136); assay: inhibition of protein phosphatase 1 activity – biochemical, fluorescence, dose response (AID 2403);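 further: phosphatase turnover of OMFP into fluorescent 3-O-methylfluorescein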
[6] = target: Induced myeloid leukemia cell differentiation protein Mcl-1 (Homo sapiens, UniProt Q07820); type: functional
[7] = target: Transitional endoplasmic reticulum ATPase (Homo sapiens, UniProt P55072, C522A); assay: C522A mutant p97 ATPase inhibitors, dose response, counter-screen for p97 inhibitor project, biochemical, luminescence (AID 1544)
[8] = target: Transitional endoplasmic reticulum ATPase (Homo sapiens, UniProt P55072); assay: p97 ATPase inhibitors, dose response, biochemical (AID 1534)
[9] = luciferase reporter signal reduction – luminescence, H4-C neuroglioblastoma cells, dose response (AID 2458); type: functional, cell-based;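 further: H4 neuroglioblastoma cells stably carrying a luciferase reporter gene fusion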
[10] = HEK-293T viability loss after treatment – luminescence, T-cell screen hits, cytotoxicity control for TCR NF-kB inhibitor project, dose response (AID 489026); type: functional, cell-based;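 further: cells exposed to compound about 14 hours before the viability readout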
[11] = alpha-synuclein stem-loop luciferase translation blockers – H4 neuroglioma cells, luminescence, confirmation (AID 1988); type: functional, cell-based
[12] = Luminescence Cell-Based Dose Response HTS to Identify Inhibitors of 5'UTR Stem-Loop Driven Prion Protein mRNA Translation in H4 Neuroglioblastoma Cells. [Related pubchem assays: 1827 (Project Summary), 1813 (Primary HTS)]; type: functional
[13] = luciferase reporter signal suppression in cells – H4 neuroglioma cells, luminescence, dose response (AID 1990); type: functional, cell-based
[14] = alpha-synuclein stem-loop translation blockers – luminescence, H4 neuroglioblastoma cells, dose confirmation, confirmation (AID 2454); type: functional, cell-based;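 further: H4 neuroglioblastoma cells carrying an alpha-synuclein 5'UTR luciferase reporter; potency for inhibition of the luciferase signal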
cells = type: functional, cell-based
[15] = blockers of bursicon-stimulated LGR2 cAMP reporter – cell-based, HEK293, CRE-luciferase reporter, cherry pick, set 2, dose response (AID 743343); type: functional;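 further: transfected cells were stimulated with diluted bursicon conditioned medium after compound addition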
[16] = target: T1, Sentrin-specific protease 6 (Homo sapiens, UniProt Q9GZR1); assay: SAR Analysis of small molecule inhibitors of Sentrin-specific protease 6 (SENP6) using a Luminescent assay. [Related pubchem assays (depositor defined):AID2582, AID2599]; type: functional
T1 sequence (Q9GZR1 whole entry): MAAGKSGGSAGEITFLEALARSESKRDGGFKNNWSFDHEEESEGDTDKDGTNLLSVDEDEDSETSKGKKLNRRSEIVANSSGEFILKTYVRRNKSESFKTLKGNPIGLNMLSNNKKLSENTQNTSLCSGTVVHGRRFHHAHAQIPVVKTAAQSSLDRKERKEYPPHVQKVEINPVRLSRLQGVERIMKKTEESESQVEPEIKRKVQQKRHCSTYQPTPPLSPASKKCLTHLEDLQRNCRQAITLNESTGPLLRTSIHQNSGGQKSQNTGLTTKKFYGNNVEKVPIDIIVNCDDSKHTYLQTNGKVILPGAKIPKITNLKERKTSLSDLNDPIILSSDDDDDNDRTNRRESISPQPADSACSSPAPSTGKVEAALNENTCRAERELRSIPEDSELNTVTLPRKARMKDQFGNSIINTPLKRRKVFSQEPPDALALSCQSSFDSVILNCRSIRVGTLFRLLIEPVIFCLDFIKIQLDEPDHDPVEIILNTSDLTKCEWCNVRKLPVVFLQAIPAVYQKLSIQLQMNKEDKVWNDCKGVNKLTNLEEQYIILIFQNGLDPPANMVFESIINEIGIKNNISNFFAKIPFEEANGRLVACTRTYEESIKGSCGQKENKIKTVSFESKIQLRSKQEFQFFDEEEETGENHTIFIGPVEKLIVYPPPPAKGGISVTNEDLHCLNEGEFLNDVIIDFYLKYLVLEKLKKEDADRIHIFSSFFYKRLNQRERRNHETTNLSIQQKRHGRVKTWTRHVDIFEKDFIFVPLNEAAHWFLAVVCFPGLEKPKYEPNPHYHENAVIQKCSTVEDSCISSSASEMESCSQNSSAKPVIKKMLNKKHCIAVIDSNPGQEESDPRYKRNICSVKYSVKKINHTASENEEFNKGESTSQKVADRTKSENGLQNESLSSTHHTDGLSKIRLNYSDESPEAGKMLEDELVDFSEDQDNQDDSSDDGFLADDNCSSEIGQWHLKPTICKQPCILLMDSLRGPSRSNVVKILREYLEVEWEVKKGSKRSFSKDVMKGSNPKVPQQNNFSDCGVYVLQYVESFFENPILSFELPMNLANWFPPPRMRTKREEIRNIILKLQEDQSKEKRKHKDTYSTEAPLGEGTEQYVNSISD

Caspase-3 = target: T2, Caspase-3 (Homo sapiens, UniProt P42574); assay: SAR Analysis of small molecule inhibitors of Sentrin-specific proteases (SENPs) using a Caspase-3 Selectivity assay. [Related pubchem assays (depositor defined):AID2540, AID2599, AID434973, AID489001]; type: functional
T2 sequence (P42574 whole entry): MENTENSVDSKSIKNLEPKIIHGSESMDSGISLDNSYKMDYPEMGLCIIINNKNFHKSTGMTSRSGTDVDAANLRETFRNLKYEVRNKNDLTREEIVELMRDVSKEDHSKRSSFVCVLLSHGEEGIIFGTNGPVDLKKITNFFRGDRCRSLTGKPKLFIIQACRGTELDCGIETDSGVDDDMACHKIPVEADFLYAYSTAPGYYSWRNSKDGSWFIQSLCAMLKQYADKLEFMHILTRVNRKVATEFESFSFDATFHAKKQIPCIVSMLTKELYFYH

[17] = blockade of melanocortin 4 receptor signaling – cell-based, plate reader, cherry pick, counter-screen for LGR2 antagonist project, dose response (AID 743444); type: functional;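 further: transfected HEK 293 cells stimulated with alpha-MSH peptide; potency of inhibitors of the alpha-MSH evoked signal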
[18] = toxicity toward HepG2 liver cells – cell-based, plate reader, cherry-pick, antagonist series, cytotoxicity control, dose response (AID 743416); type: functional
[19] = target: T3, Sentrin-specific protease 8 (Homo sapiens, UniProt Q96LD8); assay: inhibition of human SENP8 cleavage activity – biochemical, luminescence, SAR follow-up (AID 504501); type: functional
T3 sequence (Q96LD8 whole entry): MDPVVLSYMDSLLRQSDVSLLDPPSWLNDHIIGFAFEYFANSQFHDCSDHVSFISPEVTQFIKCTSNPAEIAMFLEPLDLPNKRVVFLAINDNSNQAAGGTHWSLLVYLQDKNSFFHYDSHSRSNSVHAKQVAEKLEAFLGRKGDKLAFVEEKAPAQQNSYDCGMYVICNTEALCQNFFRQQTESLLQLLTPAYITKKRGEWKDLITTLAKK

[20] = target: T4, Rac GTPase-activating protein 1 (Homo sapiens, UniProt Q9H0H5); assay: blockers of MgcRacGAP-driven Rac1 GTP hydrolysis – biochemical, ADP Hunter fluorescence, primary and confirmatory, confirmation (AID 624330); type: functional
T4 sequence (Q9H0H5 whole entry): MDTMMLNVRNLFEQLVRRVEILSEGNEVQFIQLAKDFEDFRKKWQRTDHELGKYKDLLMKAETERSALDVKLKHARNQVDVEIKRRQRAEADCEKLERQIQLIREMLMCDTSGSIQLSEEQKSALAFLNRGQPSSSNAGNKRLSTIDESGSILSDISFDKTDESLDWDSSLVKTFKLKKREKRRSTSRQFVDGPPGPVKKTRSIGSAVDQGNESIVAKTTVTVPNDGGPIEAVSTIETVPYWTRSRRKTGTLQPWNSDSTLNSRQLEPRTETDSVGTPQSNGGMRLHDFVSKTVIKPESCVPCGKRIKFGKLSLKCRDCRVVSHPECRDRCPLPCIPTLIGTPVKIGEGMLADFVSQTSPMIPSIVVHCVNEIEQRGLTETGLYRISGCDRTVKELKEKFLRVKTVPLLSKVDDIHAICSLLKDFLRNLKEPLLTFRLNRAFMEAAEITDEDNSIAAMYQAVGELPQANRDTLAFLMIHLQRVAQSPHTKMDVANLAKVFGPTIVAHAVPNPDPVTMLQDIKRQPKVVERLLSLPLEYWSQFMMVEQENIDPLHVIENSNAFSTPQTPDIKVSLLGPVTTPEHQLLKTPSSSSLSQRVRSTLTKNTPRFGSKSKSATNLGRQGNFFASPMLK

[21] = Luminescence-based counterscreen assay for KLF5 inhibitors: dose response cell-based high throughput screening assay to identify cytotoxic compounds using the IEC-6 intestinal epithelial cell line. [Related pubchem assays: 1700 (Primary screen.), 1834 (Confirmation screen.), 1858 (Summary AID.), 1905 (Counterscreen.)]; type: functional
[22] = target: T5, Sentrin-specific protease 7 (Homo sapiens, UniProt Q9BQF6); assay: inhibition of human SENP7 cleavage activity – biochemical, luminescence, SAR follow-up (AID 504497); type: functional
T5 sequence (Q9BQF6 whole entry): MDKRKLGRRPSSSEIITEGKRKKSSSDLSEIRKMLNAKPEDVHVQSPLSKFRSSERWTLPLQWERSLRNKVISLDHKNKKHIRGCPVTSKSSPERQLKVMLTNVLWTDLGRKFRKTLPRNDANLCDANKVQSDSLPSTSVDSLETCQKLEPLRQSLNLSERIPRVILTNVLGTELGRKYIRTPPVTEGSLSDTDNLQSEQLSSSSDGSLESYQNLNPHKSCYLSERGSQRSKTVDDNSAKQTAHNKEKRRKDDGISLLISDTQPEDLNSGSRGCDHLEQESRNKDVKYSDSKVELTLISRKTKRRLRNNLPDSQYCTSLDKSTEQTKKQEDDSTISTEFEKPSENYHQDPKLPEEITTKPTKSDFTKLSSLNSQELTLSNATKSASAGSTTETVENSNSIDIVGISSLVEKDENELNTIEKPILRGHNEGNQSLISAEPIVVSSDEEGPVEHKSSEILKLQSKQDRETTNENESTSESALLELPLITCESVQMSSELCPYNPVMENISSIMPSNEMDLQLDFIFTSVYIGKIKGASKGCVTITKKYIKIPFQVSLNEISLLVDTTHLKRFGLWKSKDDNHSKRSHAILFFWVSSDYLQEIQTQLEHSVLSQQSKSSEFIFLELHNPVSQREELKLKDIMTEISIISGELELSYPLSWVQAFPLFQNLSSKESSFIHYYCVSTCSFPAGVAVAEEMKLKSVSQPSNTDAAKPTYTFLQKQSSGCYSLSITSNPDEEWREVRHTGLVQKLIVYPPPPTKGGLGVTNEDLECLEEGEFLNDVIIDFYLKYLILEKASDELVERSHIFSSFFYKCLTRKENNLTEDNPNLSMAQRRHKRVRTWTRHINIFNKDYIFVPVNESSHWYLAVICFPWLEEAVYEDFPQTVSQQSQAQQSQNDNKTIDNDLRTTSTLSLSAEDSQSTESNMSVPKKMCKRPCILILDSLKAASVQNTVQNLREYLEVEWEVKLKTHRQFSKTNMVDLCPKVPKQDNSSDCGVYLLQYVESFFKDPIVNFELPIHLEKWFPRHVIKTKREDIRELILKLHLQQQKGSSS

Cytochrome P450 2D6 = Cytochrome P450 2D6 (Homo sapiens, UniProt P10635); assay: qHTS Assay for Inhibitors and Substrates of Cytochrome P450 2D6. [Related pubchem assays: 410 ]; type: ADME; details: read-out: Potency
Cytochrome P450 1A2 = target: T6, Cytochrome P450 1A2 (Homo sapiens, UniProt P05177);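 further: PubChem cytochrome P450 panel assay, CYP1A2 panel member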
T6 sequence (P05177 whole entry): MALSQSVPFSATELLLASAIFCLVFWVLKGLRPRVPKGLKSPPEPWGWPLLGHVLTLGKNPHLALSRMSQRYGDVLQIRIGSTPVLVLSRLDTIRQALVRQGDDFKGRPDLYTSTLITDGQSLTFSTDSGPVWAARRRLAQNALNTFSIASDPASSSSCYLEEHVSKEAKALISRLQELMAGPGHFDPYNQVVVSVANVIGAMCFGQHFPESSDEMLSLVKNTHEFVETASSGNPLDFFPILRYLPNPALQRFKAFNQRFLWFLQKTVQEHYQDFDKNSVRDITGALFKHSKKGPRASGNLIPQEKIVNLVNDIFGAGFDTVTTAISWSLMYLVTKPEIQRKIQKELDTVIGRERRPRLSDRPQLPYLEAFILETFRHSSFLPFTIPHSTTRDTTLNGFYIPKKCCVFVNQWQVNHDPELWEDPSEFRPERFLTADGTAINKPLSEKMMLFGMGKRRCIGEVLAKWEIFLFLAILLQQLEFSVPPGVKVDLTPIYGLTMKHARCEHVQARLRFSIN

Sequence of Heat shock cognate 71 kDa protein (P11142 whole entry): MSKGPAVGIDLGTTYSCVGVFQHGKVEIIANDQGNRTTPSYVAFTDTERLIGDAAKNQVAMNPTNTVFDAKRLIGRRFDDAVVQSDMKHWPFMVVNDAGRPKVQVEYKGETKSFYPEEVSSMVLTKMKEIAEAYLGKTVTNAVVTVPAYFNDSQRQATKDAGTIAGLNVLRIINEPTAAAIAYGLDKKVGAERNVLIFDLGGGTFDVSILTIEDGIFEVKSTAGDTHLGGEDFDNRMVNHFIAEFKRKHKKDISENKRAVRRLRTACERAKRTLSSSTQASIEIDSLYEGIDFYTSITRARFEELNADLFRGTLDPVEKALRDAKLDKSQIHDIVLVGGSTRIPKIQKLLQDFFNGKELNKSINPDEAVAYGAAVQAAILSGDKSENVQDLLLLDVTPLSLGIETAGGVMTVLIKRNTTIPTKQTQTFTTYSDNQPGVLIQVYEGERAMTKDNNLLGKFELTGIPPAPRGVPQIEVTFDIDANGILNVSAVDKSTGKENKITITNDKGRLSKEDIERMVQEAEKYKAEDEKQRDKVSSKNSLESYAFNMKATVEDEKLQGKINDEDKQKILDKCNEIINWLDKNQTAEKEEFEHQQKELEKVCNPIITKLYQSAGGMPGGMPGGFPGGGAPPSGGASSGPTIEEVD
Sequence of Serine/threonine-protein phosphatase (Q9BPW0 whole entry): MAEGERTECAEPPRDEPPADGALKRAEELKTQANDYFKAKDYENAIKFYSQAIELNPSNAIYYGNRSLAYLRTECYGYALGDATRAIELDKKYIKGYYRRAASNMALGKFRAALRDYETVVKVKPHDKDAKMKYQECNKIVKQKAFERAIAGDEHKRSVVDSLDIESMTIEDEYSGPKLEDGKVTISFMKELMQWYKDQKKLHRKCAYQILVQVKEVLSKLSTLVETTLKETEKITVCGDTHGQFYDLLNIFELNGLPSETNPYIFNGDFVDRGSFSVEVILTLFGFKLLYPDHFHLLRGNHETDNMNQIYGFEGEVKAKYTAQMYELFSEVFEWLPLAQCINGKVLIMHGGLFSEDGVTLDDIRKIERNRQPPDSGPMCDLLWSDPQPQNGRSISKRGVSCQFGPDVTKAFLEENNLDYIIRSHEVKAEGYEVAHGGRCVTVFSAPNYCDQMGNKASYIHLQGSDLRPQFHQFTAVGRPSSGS
Sequence of Induced myeloid leukemia cell differentiation protein Mcl-1 (Q07820 whole entry): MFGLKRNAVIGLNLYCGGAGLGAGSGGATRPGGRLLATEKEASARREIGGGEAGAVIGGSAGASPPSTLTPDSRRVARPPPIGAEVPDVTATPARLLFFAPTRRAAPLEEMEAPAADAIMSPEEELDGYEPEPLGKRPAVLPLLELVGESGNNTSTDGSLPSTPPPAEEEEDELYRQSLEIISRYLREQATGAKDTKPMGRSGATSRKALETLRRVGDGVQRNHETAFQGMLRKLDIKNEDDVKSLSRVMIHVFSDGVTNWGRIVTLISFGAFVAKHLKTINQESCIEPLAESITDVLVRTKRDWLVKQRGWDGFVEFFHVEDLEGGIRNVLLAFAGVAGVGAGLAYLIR
Sequence of Cytochrome P450 2D6 (P10635 whole entry): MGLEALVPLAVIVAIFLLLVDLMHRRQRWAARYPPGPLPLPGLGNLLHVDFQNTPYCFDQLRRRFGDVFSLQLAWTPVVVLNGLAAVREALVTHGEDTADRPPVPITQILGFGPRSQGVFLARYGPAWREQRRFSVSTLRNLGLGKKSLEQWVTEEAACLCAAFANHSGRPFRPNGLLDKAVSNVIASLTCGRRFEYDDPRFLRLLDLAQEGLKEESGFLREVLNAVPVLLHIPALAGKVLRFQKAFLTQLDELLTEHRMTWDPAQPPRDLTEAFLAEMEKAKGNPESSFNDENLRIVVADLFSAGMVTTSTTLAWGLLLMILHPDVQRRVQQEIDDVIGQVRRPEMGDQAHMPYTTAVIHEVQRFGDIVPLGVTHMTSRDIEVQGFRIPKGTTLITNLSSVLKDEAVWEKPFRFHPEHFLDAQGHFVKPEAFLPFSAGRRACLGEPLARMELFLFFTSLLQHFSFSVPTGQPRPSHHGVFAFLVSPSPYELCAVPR
Sequence of Glyceraldehyde-3-phosphate dehydrogenase (P04406 whole entry): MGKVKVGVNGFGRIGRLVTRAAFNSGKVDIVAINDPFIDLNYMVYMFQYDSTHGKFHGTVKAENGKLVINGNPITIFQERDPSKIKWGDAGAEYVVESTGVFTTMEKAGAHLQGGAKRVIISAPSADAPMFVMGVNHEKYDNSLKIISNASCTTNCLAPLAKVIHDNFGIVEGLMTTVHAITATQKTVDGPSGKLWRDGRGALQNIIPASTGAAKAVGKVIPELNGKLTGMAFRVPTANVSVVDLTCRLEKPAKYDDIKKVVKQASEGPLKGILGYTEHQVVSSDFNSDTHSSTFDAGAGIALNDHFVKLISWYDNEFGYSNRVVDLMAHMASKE
Sequence of Heat shock 70 kDa protein 1A (P0DMV8 whole entry): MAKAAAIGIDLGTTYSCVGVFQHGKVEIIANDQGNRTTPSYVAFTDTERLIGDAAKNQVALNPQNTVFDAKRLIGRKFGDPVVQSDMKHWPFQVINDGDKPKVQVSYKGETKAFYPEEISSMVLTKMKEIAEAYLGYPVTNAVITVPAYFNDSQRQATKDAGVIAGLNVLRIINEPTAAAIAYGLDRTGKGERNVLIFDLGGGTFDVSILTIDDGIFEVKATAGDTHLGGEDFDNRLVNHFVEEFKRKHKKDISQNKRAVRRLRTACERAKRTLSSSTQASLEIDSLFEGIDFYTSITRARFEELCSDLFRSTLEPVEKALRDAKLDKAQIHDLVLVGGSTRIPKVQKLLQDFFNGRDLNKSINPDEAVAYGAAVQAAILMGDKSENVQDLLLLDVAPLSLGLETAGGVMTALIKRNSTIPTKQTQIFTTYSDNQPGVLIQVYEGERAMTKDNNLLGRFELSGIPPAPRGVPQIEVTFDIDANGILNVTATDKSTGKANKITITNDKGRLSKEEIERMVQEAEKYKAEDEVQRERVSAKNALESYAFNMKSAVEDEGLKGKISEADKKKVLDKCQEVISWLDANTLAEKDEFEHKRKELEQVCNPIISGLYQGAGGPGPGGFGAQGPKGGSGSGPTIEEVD
Sequence of Transitional endoplasmic reticulum ATPase (Homo sapiens, UniProt P55072) (P55072 whole entry, the tested form may be a part): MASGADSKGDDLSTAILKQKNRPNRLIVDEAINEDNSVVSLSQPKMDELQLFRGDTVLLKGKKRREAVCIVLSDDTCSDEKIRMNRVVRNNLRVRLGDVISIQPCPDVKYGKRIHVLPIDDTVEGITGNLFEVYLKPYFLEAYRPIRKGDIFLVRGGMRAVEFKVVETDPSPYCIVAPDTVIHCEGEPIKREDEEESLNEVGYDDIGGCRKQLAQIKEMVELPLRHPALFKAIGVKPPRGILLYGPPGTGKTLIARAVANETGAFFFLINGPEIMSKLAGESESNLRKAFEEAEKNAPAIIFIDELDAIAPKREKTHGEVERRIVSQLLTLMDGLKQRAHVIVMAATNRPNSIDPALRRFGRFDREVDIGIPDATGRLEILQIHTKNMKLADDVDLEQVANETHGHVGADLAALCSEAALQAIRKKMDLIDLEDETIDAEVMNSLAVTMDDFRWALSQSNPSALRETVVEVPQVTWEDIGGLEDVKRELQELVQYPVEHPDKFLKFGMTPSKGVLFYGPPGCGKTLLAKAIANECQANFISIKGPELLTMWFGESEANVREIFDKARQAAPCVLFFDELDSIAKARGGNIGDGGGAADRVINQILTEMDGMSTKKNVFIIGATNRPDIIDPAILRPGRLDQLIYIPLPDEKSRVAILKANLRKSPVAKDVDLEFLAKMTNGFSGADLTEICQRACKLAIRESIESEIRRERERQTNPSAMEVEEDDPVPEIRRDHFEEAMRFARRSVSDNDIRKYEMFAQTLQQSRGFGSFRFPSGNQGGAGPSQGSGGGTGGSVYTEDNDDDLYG
Sequence of Transitional endoplasmic reticulum ATPase (Homo sapiens, UniProt P55072, C522A) (P55072 2-806 C522A limits assumed): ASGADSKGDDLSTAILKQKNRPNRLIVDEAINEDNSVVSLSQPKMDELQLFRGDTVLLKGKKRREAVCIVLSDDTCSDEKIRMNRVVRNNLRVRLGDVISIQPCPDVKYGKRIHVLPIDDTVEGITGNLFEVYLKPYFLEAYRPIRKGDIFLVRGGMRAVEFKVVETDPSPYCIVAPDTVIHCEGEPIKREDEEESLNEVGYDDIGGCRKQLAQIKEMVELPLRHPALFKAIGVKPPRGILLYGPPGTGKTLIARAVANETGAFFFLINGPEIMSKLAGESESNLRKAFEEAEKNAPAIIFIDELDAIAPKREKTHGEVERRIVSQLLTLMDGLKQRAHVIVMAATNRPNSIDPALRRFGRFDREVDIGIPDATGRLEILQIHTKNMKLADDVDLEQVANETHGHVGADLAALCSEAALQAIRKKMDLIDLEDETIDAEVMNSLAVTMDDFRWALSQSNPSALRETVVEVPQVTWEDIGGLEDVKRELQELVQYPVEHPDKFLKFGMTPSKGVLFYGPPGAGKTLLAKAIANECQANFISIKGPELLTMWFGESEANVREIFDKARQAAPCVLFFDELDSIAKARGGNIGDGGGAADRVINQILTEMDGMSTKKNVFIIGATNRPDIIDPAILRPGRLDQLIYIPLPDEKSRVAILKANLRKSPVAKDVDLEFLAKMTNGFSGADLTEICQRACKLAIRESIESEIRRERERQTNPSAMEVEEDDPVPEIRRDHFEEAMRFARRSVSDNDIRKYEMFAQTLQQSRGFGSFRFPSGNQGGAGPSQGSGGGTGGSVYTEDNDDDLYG
Sequence of Serine/threonine-protein phosphatase PP1-alpha catalytic subunit (P62136 whole entry): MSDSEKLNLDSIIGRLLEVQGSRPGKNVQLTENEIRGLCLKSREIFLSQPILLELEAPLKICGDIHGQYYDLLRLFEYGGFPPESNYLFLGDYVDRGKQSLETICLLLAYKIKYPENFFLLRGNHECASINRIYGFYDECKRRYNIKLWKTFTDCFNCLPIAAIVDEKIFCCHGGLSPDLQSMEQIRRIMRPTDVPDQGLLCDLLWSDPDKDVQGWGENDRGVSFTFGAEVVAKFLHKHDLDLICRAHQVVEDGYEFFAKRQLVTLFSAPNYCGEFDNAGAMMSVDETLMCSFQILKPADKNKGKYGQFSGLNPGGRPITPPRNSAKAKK

COc1ccc(NC(=O)C(=O)O)cc1
IC50 [1]: > 100 µM (not active) | IC50 [2]: > 100 µM (not active) | IC50 [3]: > 100 µM (not active)

COc1cnc(-c2ccccn2)nc1Oc1cccc(C(F)(F)F)c1
IC50 [4]: > 67 µM (not active) | IC50 [5]: 7.79 µM (active)

Cc1cc2c(C(C)C)c(O)c(O)c(C=O)c2c(O)c1-c1c(C)cc2c(C(C)C)c(O)c(O)c(C=O)c2c1O
IC50 [6]: 1.36 µM (active) | IC50 [7]: 15.5 µM (not active) | IC50 [8]: 5.39 µM (active)

CCOc1cccc(-c2nnc3n2N=C(c2cc(OC)ccc2OC)CS3)c1
EC50 [9]: > 12 µM (not active) | IC50 [10]: > 80 µM (inactive) | EC50 [11]: < 0.1 µM (active) | EC50 [12]: 13.1 µM (active) | EC50 [13]: 10.5 µM (active) | EC50 [14]: 9.53 µM (active) | EC50 (cells): > 12 µM (not active)

O=C(O)c1ccc(N/N=C/c2c[nH]c3ccccc23)cc1
AC50 [15]: 2.15 µM (active) | IC50 [16]: 0.869 µM (active) | IC50 (Caspase-3): 0.906 µM (active) | AC50 [17]: 2.25 µM (active) | AC50 [18]: > 52 µM (inactive) | IC50 [19]: 0.794 µM (active) | IC50 [20]: 47.7 µM (active) | IC50 [21]: > 39.8 µM (not active) | IC50 [22]: 0.985 µM (active)

CCOC(=O)C1=C(C)NC(C)=C(C(=O)OC)[C@H]1c1cccc([N+](=O)[O-])c1 [(R)-NITRENDIPINE]
AC50 (Cytochrome P450 2D6): 10 µM (inconclusive) | AC50 (Cytochrome P450 1A2): 31.6 µM (inconclusive)
